Experimental data published in US20100021918A1, “METHOD FOR ASSAYING ACTION OF ANTITUMOR AGENT USING SPLICING DEFECTS AS INDEX” (Eisai R&D Management Co., Ltd., priority 2007, published 2010).

System: peripheral blood mononuclear cells (PBMC)
Test: qPCR of precursor gene (pre-mRNA) expression in PBMC, Table 2
Format: cell-based, human
Conditions: three hours
From the text: Since it is not easy to obtain a cancer tissue clinically, the measurement of the marker in hemocytes readily obtainable in peripheral blood would be more useful. It was then examined whether the marker gene obtained in cancer cells could change in peripheral blood mononuclear cells in a similar manner as observed in the cancer cells. Specifically peripheral blood was taken from three normal individuals (volunteers) and peripheral blood mononuclear cells were purified and treated with (8E,12E,14E)-7-((4-cycloheptylpiperazin-1-yl)carbonyl)oxy-3,6,16,21-tetrahydroxy-6,10,12,16,20-pentamethyl-18,19-epoxytricosa-8,12,14-trien-11-olide for three hours, followed by measurement of change in expression of the precursor gene (pre-mRNA) by qPCR.
Ficoll-Paque PLUS solution (Amersham, 17-1440-02) was slowly added to the blood taken (with heparin added) from healthy individuals to form a layer underneath the blood (15 mL of Ficoll-Paque PLUS solution was added to 25 mL of blood). After the mixture was centrifuged at 1500 rpm for 30 min, the upper part containing platelets was removed and then a layer containing mononuclear cells was transferred to another tube. The cells were suspended in PBS and centrifuged at 1500 rpm for 5 min, followed by removal of the supernatant. After these steps were repeated twice, the PBMC was suspended in RPMI1640 (containing 10% FBS, penicillin, and streptomycin) and the number of the cells was then counted.
PBMC was suspended in RPMI1640 medium (containing 10% FBS, penicillin, and streptomycin) to 5×10^6 cells/ml and 1 ml of the suspension was plated per well of a 24-well plate. Immediately, 111 μl of 10 times-concentrated (8E,12E,14E)-7-((4-cycloheptylpiperazin-1-yl)carbonyl)oxy-3,6,16,21-tetrahydroxy-6,10,12,16,20-pentamethyl-18,19-epoxytricosa-8,12,14-trien-11-olide was added to the well (six wells per each concentration tested). The cells were then cultured in an incubator with 5% carbon dioxide gas at 37° C. Three hours later, the supernatant was collected and centrifuged at 1500 rpm for five minutes. TRI reagent (SIGMA) (1 ml) was added to each well of the plate from which the supernatant was removed to harvest the cells, which was added to the centrifuged pellet to dissolve. RNA was purified in accordance with the protocol of TRI reagent. RNA was further purified using RNeasy (QIAGEN) and, in accordance with the protocol, DNaseI was added to the samples during the procedure. Absorbance at 260 nm was measured to quantify an amount of RNA.
RNA was prepared to 30 ng/μl and cDNA was synthesized using TaqMan Reverse Transcription Reagents (Applied Biosystems). For the expression level of pre-mRNA of ID1, amplification was carried out by using TaqMan Universal PCR Master Mix (Applied Biosystems) with TaqMan Gene Expression Assays (Hs00704053_s1, Applied Biosystems) as a probe. For the expression level of pre-mRNA of DNAJB1, BZW1, NUP54, RIOK3, CDKN1B, STK17B, ADRM1, EIF4A1, FOXK2, GNB2L1, HSPA9B, HSPH1, KLHL18 and VIL2, reagents were prepared in accordance with each protocol by using POWER SYBR GREEN PCR MASTER MIX (Applied Biosystems) and primers with the sequence below (Invitrogen), and the expression level was measured with ABI7900 (Applied Biosystems). 18S rRNA was measured by both the TaqMan and SYBR methods. The expression level of 18S r RNA was measured with Hs99999901_s1 (Applied Biosystems) as primers for TaqMan and with 18S primers included in TaqMan Ribosomal RNA control reagents (4308329: Applied Biosystems) as primers for SYBR. Measured values were corrected using the expression level of 18S rRNA as an internal control. The expression level of each gene was calculated with the expression level in the cells treated without (8E,12E,14E)-7-((4-cycloheptylpiperazin-1-yl)carbonyl)oxy-3,6,16,21-tetrahydroxy-6,10,12,16,20-pentamethyl-18,19-epoxytricosa-8,12,14-trien-11-olide as 1.

CCC(O)C(C)C1OC1CC(C)(O)/C=C/C=C(\C)C1OC(=O)CC(O)CCC(C)(O)C(OC(=O)N2CCN(C3CCCCCC3)CC2)/C=C/C1C (stereo not drawn) [E7107, (8E,12E,14E)-7-((4-cycloheptylpiperazin-1-yl)carbonyl)oxy-3,6,16,21-tetrahydroxy-6,10,12,16,20-pentamethyl-18,19-epoxytricosa-8,12,14-trien-11-olide]
expression level of pre-mRNA of ADRM1 (untreated cells as 1) (E7107 3 nM): 1.8
expression level of pre-mRNA of BZW1 (untreated cells as 1) (E7107 3 nM): 1.72
expression level of pre-mRNA of CDKN1B (untreated cells as 1) (E7107 3 nM): 1.27
expression level of pre-mRNA of DNAJB1 (untreated cells as 1) (E7107 3 nM): 2.25
expression level of pre-mRNA of EIF4A1 (untreated cells as 1) (E7107 3 nM): 2.17
expression level of pre-mRNA of FOXK2 (untreated cells as 1) (E7107 3 nM): 2.1
expression level of pre-mRNA of GNB2L1 (untreated cells as 1) (E7107 3 nM): 2.47
expression level of pre-mRNA of HSPA9 (untreated cells as 1) (E7107 3 nM): 1.87
expression level of pre-mRNA of HSPH1 (untreated cells as 1) (E7107 3 nM): 1.26
expression level of pre-mRNA of ID1 (untreated cells as 1) (E7107 3 nM): 3.31
expression level of pre-mRNA of KLHL18 (untreated cells as 1) (E7107 3 nM): 2.36
expression level of pre-mRNA of NUP54 (untreated cells as 1) (E7107 3 nM): 2.31
expression level of pre-mRNA of RIOK3 (untreated cells as 1) (E7107 3 nM): 2.59
expression level of pre-mRNA of STK17B (untreated cells as 1) (E7107 3 nM): 1.94
expression level of pre-mRNA of VIL2 (untreated cells as 1) (E7107 3 nM): 1.27
expression level of pre-mRNA of ADRM1 (untreated cells as 1) (E7107 10 nM): 2.68
expression level of pre-mRNA of BZW1 (untreated cells as 1) (E7107 10 nM): 2.34
expression level of pre-mRNA of CDKN1B (untreated cells as 1) (E7107 10 nM): 2.35
expression level of pre-mRNA of DNAJB1 (untreated cells as 1) (E7107 10 nM): 4.46
expression level of pre-mRNA of EIF4A1 (untreated cells as 1) (E7107 10 nM): 3.64
expression level of pre-mRNA of FOXK2 (untreated cells as 1) (E7107 10 nM): 2.68
expression level of pre-mRNA of GNB2L1 (untreated cells as 1) (E7107 10 nM): 2.74
expression level of pre-mRNA of HSPA9 (untreated cells as 1) (E7107 10 nM): 3.45
expression level of pre-mRNA of HSPH1 (untreated cells as 1) (E7107 10 nM): 1.88
expression level of pre-mRNA of ID1 (untreated cells as 1) (E7107 10 nM): 6
expression level of pre-mRNA of KLHL18 (untreated cells as 1) (E7107 10 nM): 2.97
expression level of pre-mRNA of NUP54 (untreated cells as 1) (E7107 10 nM): 2.46
expression level of pre-mRNA of RIOK3 (untreated cells as 1) (E7107 10 nM): 3.57
expression level of pre-mRNA of STK17B (untreated cells as 1) (E7107 10 nM): 3.44
expression level of pre-mRNA of VIL2 (untreated cells as 1) (E7107 10 nM): 2.87
expression level of pre-mRNA of ADRM1 (untreated cells as 1) (E7107 30 nM): 2.59
expression level of pre-mRNA of BZW1 (untreated cells as 1) (E7107 30 nM): 3.26
expression level of pre-mRNA of CDKN1B (untreated cells as 1) (E7107 30 nM): 4.9
expression level of pre-mRNA of DNAJB1 (untreated cells as 1) (E7107 30 nM): 7.42
expression level of pre-mRNA of EIF4A1 (untreated cells as 1) (E7107 30 nM): 4.36
expression level of pre-mRNA of FOXK2 (untreated cells as 1) (E7107 30 nM): 2.31
expression level of pre-mRNA of GNB2L1 (untreated cells as 1) (E7107 30 nM): 2.23
expression level of pre-mRNA of HSPA9 (untreated cells as 1) (E7107 30 nM): 2.33
expression level of pre-mRNA of HSPH1 (untreated cells as 1) (E7107 30 nM): 2.68
expression level of pre-mRNA of ID1 (untreated cells as 1) (E7107 30 nM): 10.57
expression level of pre-mRNA of KLHL18 (untreated cells as 1) (E7107 30 nM): 2.6
expression level of pre-mRNA of NUP54 (untreated cells as 1) (E7107 30 nM): 1.93
expression level of pre-mRNA of RIOK3 (untreated cells as 1) (E7107 30 nM): 2.89
expression level of pre-mRNA of STK17B (untreated cells as 1) (E7107 30 nM): 3.99
expression level of pre-mRNA of VIL2 (untreated cells as 1) (E7107 30 nM): 4.89
